Assay results as given in patent US6907280B2, “Method and apparatus for objectively measuring pain, pain treatment and other related techniques” (The General Hospital Corporation, priority 1999, dated 2005).

Key:
[1] = test system: VT/PAG brain region; test: fMRI of VT/PAG during intravenous naloxone infusion; format: in vivo, human; settings: naloxone 4 mg/70 kg i.v., infusion period vs preinfusion
Protocol: Referring to FIGS. 10E and 10F, central nervous system (CNS) activity in reward/aversive regions is shown in response to an infusion of naloxone (in a dose of 4 mg/70 kg) in a subject.
Referring now to FIG. 10E, the VT/PAG (combined left and right components in region 820) having an activation 820 in response to an infusion of naloxone in a subject. The size and shade of the region 420a indicates the extent of activation and statistical significance respectively within the region. […] In region 820, a darker shade of gray indicates a less significant activation while a region indicated by a lighter shade of gray indicates a more significant activation.
The period 822a has a duration typically of about five minutes followed by the infusion period 822b having a duration typically of about five minutes.
The response is represented by curve 828 showing preinfusion (white background) and post-infusion (stippled background) time points.
As is known, the VT/PAG is part of the reward/aversion circuitry in the brain and since infusion of naloxone elicits a corresponding decrease (as measured by percentage signal change) in the VT/PAG response, the VT/PAG is said to be negatively valenced with respect to a drug that affects pain function, and analgesic responses to pain.

[2] = test system: brainstem region spV and thalamus; test: Heat/capsaicin sensitization model on the face: fMRI of spV and thalamus; format: in vivo, human
Protocol: Referring now to FIG. 13, surrogate models of sensitization are explained. Activation in the spV and thalamus following allodynia produced by a heat-capsaicin model in a healthy volunteer are, together, different than in acute pain.
(§1) In one experiment, the following paradigm was used. First allodynia was induced by application of heat in the form of a heat probe as described above to portions of the face of a subject. The heat was applied at a temperature of 44° C. for time period of 5 minutes. Next, a 0.075% capsaicin cream was applied for 20 minutes in the same facial area where the heat probe had been. The capsaicin cream was modified following the method described in “A new human experimental pain model: the heat/capsaicin sensitization model,” Petersen and Rowbotham, Neuroreport. 1999; 10(7):1511-6. Allodynia was produced by the application of normally non-noxious brush and 41 ° C. stimuli to the right (R) and left (L) V2 division of the trigeminal node.
Curve 1306 represents a zero baseline signal. Curve 1300 is plotted as percent signal change vs. time (seconds).
Referring now to FIG. 13A, a curve 1310 representing the response of the thalamus to a series of brush strokes of an example of pain 2 is shown. Curve 1312 represents a zero baseline signal. The brush strokes are applied during time periods designated 1314a, 1314b.

[3] = test system: aCG and NAc brain regions; test: fMRI of 41° C. stimulus in subject sensitized to heat by capsaicin (hyperalgesia, Pain 2); format: in vivo, human
Protocol: Referring now to FIG. 8A, an image of an anterior cingulate gyrus (aCG) having an activation 750 in response to a 41° C. thermal stimulus is shown. […] It should be appreciated of course that any thermal mechanical, chemical device can be used to produce pain. […] Referring now to FIG. 8C, an image of aNAc region 760 in response to a 41° C. thermal stimulus is shown. […] The size and color of the activations shown in FIG. 8C indicate the relative activation and statistical significance respectively within each region.

[4] = Heat/capsaicin sensitization model on the face: VAS pain ratings; format: in vivo, human; settings: 11 point VAS 0-10
Protocol: as §1
For the 5 minute thermal application, the capsaicin application and the pain induced by normally non-noxious mechanical and thermal stimuli to the right or left V2 region, the subjects rated the intensity of the pain they experienced using a conventional on-line VAS rating scheme (i.e. an 11 point visual analogue scale 0-10; where 0=no pain and 10=maximum pain). The subjects rated the 5 minute thermal application and the capsaicin application on the V2R as approximately 5 and 2.5, respectively, on the VAS rating scale. The application of the brush to the V2R region was rated as a 2.5 on the VAS scale and the brush to the V2L region (i.e. the untreated V2 region) produced no pain. Also, application of the 41° C. probe to the V2R region was rated as approximately 9 on the VAS scale while application of the 41° C. probe to the V2L region was rated as approximately 1 on the VAS scale.

[5] = test system: reward/aversion circuitry (GOb, NAc); test: Cocaine expectancy fMRI (prior to/shortly after infusion, before pharmacological effects); format: in vivo, human; settings: right hemisphere
Text: Also, drug expectancy effects can be observed prior to the infusion of cocaine vs. saline. […] These effects result from probability assessments regarding the potential of receiving a drug reward (i.e. a previously experienced reward).

[6] = test system: reward/aversion circuitry (GOb, NAc, SLEA, amygdala, VT); test: Double-blind cocaine vs saline infusion fMRI in cocaine addicts (Table II Cocaine (1)); settings: Outcomes, right hemisphere
[7] = test system: reward/aversion circuitry (GOb, NAc, SLEA, amygdala, VT); test: Unblinded low-dose morphine vs saline infusion fMRI in drug-naive healthy volunteers; format: in vivo, human
Text: Error bars are included for the MRI data acquired as the 20′ time-point, the 70′ time-point, the 150′ time-point, and the 250′ time-point. Time is represented in seconds using a conversion of repetition time (TR)=6 RR intervals=6 seconds. […] (Table II)

[8] = test system: NAc brain region; settings: 4 mg/70 kg, noxious heat 46° C.
Protocol: The saline is administered using conventional intravenous techniques. The thermal stimulus is delivered to a subject using a Peltier based thermode. The size of the activations shown in FIG. 10A indicate the relative extent within each region. The size of the region corresponds to the amount of activation in a volume in the NAc. Thus, a relatively small size corresponds to a relatively low activation volume in the NAc while a relatively large size corresponds to a relatively large activation volume in the NAc.
The thermal pulse 794 is provided having a pulse duration typically of about thirty seconds followed by a resting period 792b having a duration typically of about thirty seconds and during which time a neutral temperature is applied to the subject. […] In one experiment, the first temperature (i.e. the neutral temperature) corresponds to a temperature typically of about 35° C. and the second temperature (i.e. the painful temperature) corresponds to a temperature typically of about 46° C. Thus, pulses 792 and 794 in FIG. 10B vary from a temperature typically of about 35° C. to a temperature typically of about 46° C. […]

[9] = Outcomes, Morphine, right hemisphere

SMILES: C=CCN1CC[C@]23c4c5ccc(O)c4O[C@H]2C(=O)CC[C@@]3(O)[C@H]1C5 [naloxone]
- VT/PAG signal change during infusion [1]: negative percent change

SMILES: COc1cc(CNC(=O)CCCC/C=C/C(C)C)ccc1O [capsaicin]
- Ipsilateral spV activation ([2]; 41° C. thermal probe to V2 skin treated with capsaicin): activation in the ipsilateral spV was observed
- Contralateral thalamus signal change ([2]; brush induced allodynia, heat-capsaicin model, p<0.01 t-test): decrease in signal
- NAc signal change to thermal pulse [3]: negative percentage change
- aCG signal change to thermal pulse [3]: positive percentage change
- Pain intensity rating of the capsaicin application ([4]; 0.075% capsaicin cream 20 minutes on V2R): ~2.5
- Pain intensity rating of 41° C. probe on treated region ([4]; 41° C. probe to V2R after heat/capsaicin): approximately 9
- Pain intensity rating of brush on treated region ([4]; brush to V2R after heat/capsaicin): 2.5

SMILES: COC(=O)[C@H]1[C@@H](OC(=O)c2ccccc2)C[C@@H]2CC[C@H]1N2C [cocaine]
- Activation, Gob R [5]: X^2
- Activation, Amygdala R [6]: (X)
- Activation, SLEA R [6]: (X)

SMILES: CN1CC[C@]23c4c5ccc(O)c4O[C@H]2[C@@H](O)C=C[C@H]3[C@H]1C5 [morphine]
- Activation, Gob R [7, 9]: (X)
- Activation, NAc R [7, 9]: X^3
- Activation, SLEA R [7, 9]: X^2
- Laterality of NAc signal changes ([7]; averaged time-course, right and left NAc, morphine vs saline): bilateral NAc changes
- Valence of NAc signal ([7]; drug reward): positively valenced signal
- Activation of reward regions such as the NAc ([7]; low dose morphine, healthy volunteers): activation
- Subjective effect ([7]; very low doses of morphine): mild euphoria
- Analgesic effect determined from NAc activation [8]: attenuates pain
